Values quoted from earlier work in paper PMC7927942 (Journal of chemical information and modeling, 2020).

Molecular target: wild-type JAK2 JH2 (Homo sapiens, UniProt O60674)
Settings: benchmark ligand from high-throughput screen

Sequence of wild-type JAK2 JH2 (O60674 545-809 limits assumed): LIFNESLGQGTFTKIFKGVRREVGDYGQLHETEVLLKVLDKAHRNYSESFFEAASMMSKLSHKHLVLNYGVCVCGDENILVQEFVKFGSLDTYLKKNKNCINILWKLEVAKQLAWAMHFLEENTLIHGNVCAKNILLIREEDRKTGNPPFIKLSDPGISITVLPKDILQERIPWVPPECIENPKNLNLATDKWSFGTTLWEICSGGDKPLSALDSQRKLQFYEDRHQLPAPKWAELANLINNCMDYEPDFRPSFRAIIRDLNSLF

% binding at 50 μM: 9%
SMILES: O=C(Nc1nc2cccc(-c3ccc(CN4CCS(=O)(=O)CC4)cc3)n2n1)C1CC1 [filgotinib]
